Laboratory results as given in patent publication US20080274104A1, “Targeting a Secreted Pro-Apoptotic Factor for Cancer Therapeutics” (priority 2005, published 2008).
“And” between values parts separate entries of the source, which are not always exact repeats. Equal values may be shown once.

Experiments:
[1] = system: NGAL expression in SKBr3 cell line; test: NGAL expression in breast cancer cell line; assay type: cell-based, human
Description: Several breast cancer cell lines were examined for NGAL expression.

C3H/HeJ mice = test: C3H/HeJ mouse leukemia model injected with BCR-ABL+ 32D cells; assay type: in vivo; settings: individual mouse
Protocol: Therefore, the present inventors wanted to determine whether the affects of anti-sense 24p3 expression in leukemia cells would produce the same effects as in the NOD/scid mouse. In these experiments, 10e6 BCR-ABL+32D cells were injected iv into 8-week old C3H/HeJ mice. Leukemia cells expressed either GFP or anti-sense 24p3 RNA or siRNA for 24p3. The GFP expressing leukemia cells induced a vigorous leukemia involving marrow, spleen, blood and liver (Table 2). Expression of anti-sense 24p3 in leukemia cells reduced the level of invasion in marrow and the spleen but not the liver. Importantly, these mice developed a vigorous ascites tumor growth of GFP+ cells, which was not observed in the GFP vector expressing leukemia cells. […]

suitable targets cells = test: Apoptosis induction with purified 24p3/NGAL; assay type: cell-based; settings: GST-bacterial method protein
Description: These findings indicate that the Bcr-Abl oncoprotein in addition to its oncogenic effects also induces secretion of an apoptotic factor (24p3/NGAL) that causes suppression of normal hematopoiesis. […] Detailed structural analysis has shown that NGAL is an iron binding protein, and that the ligand for NGAL is a catecholate-type siderophore (Goetz et al., 2002). Whether the siderophore binding function is related to 24p3/NGAL's ability to induce apoptosis is not known. In specific embodiments, the apoptotic activity of 24p3/NGAL may require either post-translational modification in eukaryotic cells or formation of a complex with one or more factors. […] Local suppression of normal hematopoiesis by 24p3/NGAL secreted by leukemia cells would allow the leukemic clone to more readily compete, survive, infiltrate and proliferate in normal marrow and the spleen tissue environment. […] Thus, as little as one pluripotent stem cell that has acquired BCR-ABL expression by forming the Philadelphia chromosome could survive and compete in the normally active marrow environment because of its ability to secrete a cell death factor (and possibly other factors; Eaves et al., 1998; Olofsson and Olsson, 1980; Olofsson and Olsson, 1980; Skold et al., 1999) to which it is resistant. The ensuing cell death in the surrounding marrow cells would facilitate expansion of the leukemic clone in the normal marrow. […]

## Cc1ccc(S(=O)(=O)/C=C/C#N)cc1 [BAY11-7082]
[1]
  NGAL expression: strongly inhibited

## siRNA #4: small hairpin RNA against 24p3 driven by H1 promoter, SEQ ID NO:1 (DNA GGCAGCTTTACGATGTACATTCAAGAGATGTACATCGTAAAGCTGCCTTTTTTCCAAT; expressed or natural sequence)
C3H/HeJ mice
  Ascites: Yes
  Solid tumor: Yes
C3H/HeJ mice; listed as 32Dp210 siRNA
  GFP positive cells, Ascites: 90% (2×) and 80% and 100% (2×)
  GFP positive cells, BM: <1% and 5% (3×) and No
  GFP positive cells, Liver: 20% and 50% and 40% and 10% and 25%
  GFP positive cells, PB: 50% and <1% and 20%
  GFP positive cells, Spleen: 5% and 25% and <1% and No and 20%
  GFP positive cells, Tumor: 40% and 70%
  Spleen wt: 160 mg and 110 mg and 40 mg and 90 mg and 130 mg

B1: purified 24p3/NGAL: purified 24p3/NGAL lipocalin protein made by GST-bacterial method (protein, UniProt P11672 21-200, looked up)
Neutrophil …: QDSTQNLIPAPSLLTVPLQPDFRSDQFRGRWYVVGLAGNAVQKKTEGSFTMYSTIYELQENNSYNVTSILVRDQDQGCRYWIRTFVPSSRAGQFTLGNMHRYPQVQSYNVQVATTDYNQFAMVFFRKTSENKQYFKITLYGRTKELSPELKERFTRFAKSLGLKDDNIIFSVPTDQCIDN
Suitable targets cells
  apoptosis induction: unable to induce apoptosis
